Results taken from patent US6691045B1, “Method for determining discrete quantitative structure activity relationships” (Chemical Computing Group Inc., priority 1998, dated 2004).

Columns and labels:
[1] = target: T1, Carbonic Anhydrase II receptor (Homo sapiens, UniProt P00918); details: example initial data set; cited from earlier work
[2] = target: T1, Carbonic Anhydrase II receptor; assay: binding affinity to Carbonic Anhydrase II, from scientific literature; details: threshold value 5.85
Excerpt: Each compound is given a numerical value indicating its binding affinity. Beside each drawing in Table 1, is a quantitative experimental assessment of binding affinity.
Otherwise, it would be 1.

estrogen receptor = details: relative binding affinity scale, estradiol = 100; binding at 0 to 4° C.; presumed ER-α; cited from earlier work

SMILES | ACTIVITY (quantitative experimental assessment of binding affinity) [1] | CLASS (activity class, active/inactive) ([2]; structures as SMILES) | CLASS (activity class, active/inactive) ([2]; structures as drawings) | log RBA (estrogen receptor)
CC(=O)Nc1nnc(S(=O)(=O)NC(C)C)s1 | 5.80 | 0 (If the activity value is less than 5.85, the activity class is 0) | 0 (If the activity value is less than 5.85, the activity class is 0) | 
CNS(=O)(=O)c1cccc(O)c1 | 5.92 | 1 (Otherwise, it would be 1) | 1 (Otherwise, it would be 1) | 
CC/C(=C(/CC)c1ccc(O)cc1)c1ccc(O)cc1 [DES, desthylstilbestrol] |  |  |  | 2.48
